Among the data in ChEMBL document CHEMBL3632610, “Expanding the structural diversity of Bcr-Abl inhibitors: Dibenzoylpiperazin incorporated with 1H-indazol-3-amine” (Eur J Med Chem, 2015) are IC50 values, retold here.

Some results are limits rather than exact numbers.

In general, IC50 refers to the midpoint of a concentration-inhibition curve.

The target in test [1] is Bcr/Abl fusion protein (Homo sapiens, UniProt P00519, T315I). Put plainly: Inhibition of Bcr-Abl T315I mutant (unknown origin) by ADP-Glo assay. Type of test: protein assay. In general terms: In ADP-Glo the light output rises with the ADP produced.
The test system of test [2] is K562. Put plainly: Cytotoxicity against human K562 cells expressing Bcr-Abl assessed as growth inhibition after 48 hrs by MTT assay. As to conditions: K562, 48 h. On the technique in general: Tetrazolium dyes change colour on reduction, which living cells bring about.
The target of test [3] is Bcr/Abl fusion protein (Homo sapiens, UniProt P00519). Kind of test: Inhibition of wild type Bcr-Abl (unknown origin) by ADP-Glo assay. It is filed as protein assay.

As to `COc1cc(OC)cc(C(=O)N2CCN(C(=O)c3ccc(-c4cccc5[nH]nc(N)c45)cc3)CC2)c1`, the IC50 was above 100 µM in test [1] and 105 µM in test [2].
Turning to `Nc1n[nH]c2cccc(-c3ccc(C(=O)N4CCN(C(=O)c5ccc(Cl)cc5Cl)CC4)cc3)c12`, the IC50 stood at 14 nM in test [3], 0.45 µM in test [1] and 6.5 µM in test [2].
The matching figures for `Nc1n[nH]c2cccc(-c3ccc(C(=O)N4CCN(C(=O)c5cccc(F)c5)CC4)cc3)c12`: 86 nM, 2.07 µM and 30.2 µM.
On to `COc1cccc(C(=O)N2CCN(C(=O)c3ccc(-c4cccc5[nH]nc(N)c45)cc3)CC2)c1`, for which the half-inhibitory concentration (IC50) is 49200 nM in test [3], above 100 µM in test [1] and 9.6 µM in test [2].
On to `Nc1n[nH]c2cccc(-c3ccc(C(=O)N4CCN(C(=O)c5ccccc5Cl)CC4)cc3)c12`, for which the half-maximal inhibitory concentration (IC50) stood at 84 nM in test [3], 3.41 µM in test [1] and 53.7 µM in test [2].
For `Nc1n[nH]c2cccc(-c3ccc(C(=O)N4CCN(C(=O)c5ccccc5Br)CC4)cc3)c12`, in that order: 180 nM, 0.74 µM and 47.3 µM.
Consider `Nc1n[nH]c2cccc(-c3ccc(C(=O)N4CCN(C(=O)c5cccc(C(F)(F)F)c5)CC4)cc3)c12`, for which the IC50 came to 2760 nM in test [3], 94.6 µM in test [1] and 18.1 µM in test [2].
Consider `Nc1n[nH]c2cccc(-c3ccc(C(=O)N4CCN(C(=O)c5ccc(F)c(F)c5)CC4)cc3)c12`, for which the 50% inhibitory concentration (IC50) in test [3] is above 100000 nM; in test [1], 83.5 µM; in test [2], 21.5 µM.
For the compound `COc1ccc(C(=O)N2CCN(C(=O)c3ccc(-c4cccc5[nH]nc(N)c45)cc3)CC2)cc1`, the 50% inhibitory concentration (IC50) in test [3] was above 100000 nM; in test [1], above 100 µM; in test [2] it was 69.7 µM.
The matching figures for `Cc1cccc(C(=O)N2CCN(C(=O)c3ccc(-c4cccc5[nH]nc(N)c45)cc3)CC2)c1`: 2370 nM, above 100 µM and 21.8 µM.
In the case of `Nc1n[nH]c2cccc(-c3ccc(C(=O)N4CCN(C(=O)c5ccc(Cl)cc5)CC4)cc3)c12`, the IC50 in test [3] came out at 1890 nM; in test [1], 65.6 µM; in test [2] it was 10.5 µM.
For `COc1ccccc1C(=O)N1CCN(C(=O)c2ccc(-c3cccc4[nH]nc(N)c34)cc2)CC1`, in that order: 22800 nM, above 100 µM and 32.1 µM.
For `Cc1ccccc1C(=O)N1CCN(C(=O)c2ccc(-c3cccc4[nH]nc(N)c34)cc2)CC1`, in that order: 8560 nM, above 100 µM and 17.2 µM.
The matching figures for `Nc1n[nH]c2cccc(-c3ccc(C(=O)NCCNC(=O)c4ccc(F)c(F)c4)cc3)c12`: 14300 nM, 75.3 µM and 28.4 µM.
For `Nc1n[nH]c2cccc(-c3ccc(C(=O)NCCNC(=O)c4ccccc4Br)cc3)c12`, the IC50 in test [3] amounted to 31 nM; in test [1], 1.04 µM; in test [2], 13.1 µM.
Regarding `Cc1ccccc1C(=O)NCCNC(=O)c1ccc(-c2cccc3[nH]nc(N)c23)cc1`, the 50% inhibitory concentration (IC50) in test [3] came to 18 nM; in test [1] it was 28.8 µM; in test [2], 8 µM.
For `Nc1n[nH]c2cccc(-c3ccc(C(=O)NCCNC(=O)c4cccc(C(F)(F)F)c4)cc3)c12`, in that order: 450 nM, 56.3 µM and 61.9 µM.
As to `Nc1n[nH]c2cccc(-c3ccc(C(=O)NCCNC(=O)c4cccc(F)c4)cc3)c12`, the IC50 was above 100 µM in test [1] and 26.9 µM in test [2].
In the case of `COc1ccccc1C(=O)NCCNC(=O)c1ccc(-c2cccc3[nH]nc(N)c23)cc1`, the results for the concentration for half-maximal inhibition (IC50) in test [3], in test [1] and in test [2] were 250 nM, above 100 µM and 13.9 µM, respectively.
For `COc1ccc(C(=O)NCCNC(=O)c2ccc(-c3cccc4[nH]nc(N)c34)cc2)cc1`, in that order: above 100000 nM, above 100 µM and 258 µM.
As for `Cc1nc(Nc2ncc(C(=O)Nc3c(C)cccc3Cl)s2)cc(N2CCN(CCO)CC2)n1` [DASATINIB], the IC50 in test [2] came to 0.45 µM.
